Literature values as cited in US4221778A, “Prolonged release pharmaceutical preparations” (Pennwalt Corporation, priority 1979, dated 1980).
Counter-ions that a name gives are not always drawn.

Columns and labels:
[1] = not given; remark: listed apart in the source
[2] = not given; remark: listed apart in the source

CC(C)(N)Cc1ccccc1 [Phentermine hydrochloride]
blood levels in humans (hydrochloride salt, doses of 15 mg. and 30 mg.): rapid peak concentrations

COc1ccc2c(c1)[C@]13CCCC[C@@H]1[C@H](C2)N(C)CC3 [Dextromethorphan]
effectiveness in patients with pathological cough (pathological cough; compared with codeine): about the equal of codeine
analgesic or addictive properties (pathological cough; human, in vivo): no analgesic or addictive properties
toxicity (pathological cough; human, in vivo): quite low
drowsiness (pathological cough; unlike codeine): rarely produces drowsiness

CN[C@@H](C)[C@H](O)c1ccccc1 [Ephedrine]
biological half life in man [1]: about 6 hours

CC(N)C(O)c1ccccc1 (stereo not shown) [PPA, phenylpropanolamine]
pKa [2]: 9.4
biological half life in man [1]: 3.9 hours

CN[C@@H](C)[C@@H](O)c1ccccc1 [Pseudoephedrine]
biological half life in man [1]: 5-7 hours

CC(C)(N)Cc1ccccc1 [Phentermine, phenyl-tertiary-butyl-amine]
absorption from the gastrointestinal tract (free form): rapidly absorbed
